Assay [1] deals with T1, Integrin alpha-4/beta-1 (Homo sapiens, UniProt P05556+P13612). Description: Inhibition of fluorescently labeled alpha4-beta1 positive Ramos cells binding to immobilized VCAM-1. The assay is classed as cell-based.
Assay [2] has as its target T1, Integrin alpha-4/beta-1. Description: Inhibition of purified alpha-4 beta-1 binding to VCAM-1 was determined in an ELISA assay. The assay is classed as protein-complex assay.

Each structure is given as a SMILES string. *1 amine or outer side, *2 acyl side, *3 side chain or, on linkers, in order; H or OH if unused. Where a SMILES comes first, the peptide text is derived from it. Bridges are numbered along the chain shown (N, C = ends). [ ]: non-standard residue; d: D form. The star is where a group is joined. X7 = O=C([C@H]1[C@@H](c2ccc(O)cc2)CCN1[*:1])[*:2]; X3 = O=C([C@H]1[C@H](c2ccc(O)cc2)CCN1[*:1])[*:2]; Fmoc = O=C(OCC1c2ccccc2-c2ccccc21)*; 1Naphthoyl = O=C(c1cccc2ccccc12)*; 2Naphthoyl = O=C(c1ccc2ccccc2c1)*; Hyp = O=C(O)[C@@H]1C[C@@H](O)CN1; Cha = N[C@@H](CC1CCCCC1)C(=O)O; Aic = NC1(C(=O)O)Cc2ccccc2C1; Chg = N[C@H](C(=O)O)C1CCCCC1; Phg = N[C@H](C(=O)O)c1ccccc1; Pip = O=C(O)[C@@H]1CCCCN1; 3Abz = Nc1cccc(C(=O)O)c1; Bz = O=C(c1ccccc1)*; Sar = CNCC(=O)O

T1 sequence (P05556 whole entry): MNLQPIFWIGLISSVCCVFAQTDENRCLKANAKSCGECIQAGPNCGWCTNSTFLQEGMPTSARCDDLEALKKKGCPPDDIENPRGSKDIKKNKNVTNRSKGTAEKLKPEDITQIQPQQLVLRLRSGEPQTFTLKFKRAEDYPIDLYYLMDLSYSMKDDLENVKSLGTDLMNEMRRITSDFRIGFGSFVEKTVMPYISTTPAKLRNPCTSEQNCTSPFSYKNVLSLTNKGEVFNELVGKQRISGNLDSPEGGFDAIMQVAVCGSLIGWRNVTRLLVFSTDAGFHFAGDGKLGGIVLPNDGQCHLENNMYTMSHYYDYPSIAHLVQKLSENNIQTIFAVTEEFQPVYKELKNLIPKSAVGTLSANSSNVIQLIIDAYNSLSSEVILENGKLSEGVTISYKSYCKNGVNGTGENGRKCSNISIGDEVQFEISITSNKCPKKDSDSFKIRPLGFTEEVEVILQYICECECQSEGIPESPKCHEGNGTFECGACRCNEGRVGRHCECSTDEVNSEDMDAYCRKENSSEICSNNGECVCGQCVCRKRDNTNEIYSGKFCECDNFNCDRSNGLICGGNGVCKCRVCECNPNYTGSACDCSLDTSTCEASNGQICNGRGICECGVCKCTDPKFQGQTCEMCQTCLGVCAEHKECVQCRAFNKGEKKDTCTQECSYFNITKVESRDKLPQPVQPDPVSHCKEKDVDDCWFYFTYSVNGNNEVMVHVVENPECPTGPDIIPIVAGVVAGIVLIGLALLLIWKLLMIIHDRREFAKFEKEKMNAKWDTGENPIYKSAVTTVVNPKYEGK
T1 sequence (P13612 whole entry): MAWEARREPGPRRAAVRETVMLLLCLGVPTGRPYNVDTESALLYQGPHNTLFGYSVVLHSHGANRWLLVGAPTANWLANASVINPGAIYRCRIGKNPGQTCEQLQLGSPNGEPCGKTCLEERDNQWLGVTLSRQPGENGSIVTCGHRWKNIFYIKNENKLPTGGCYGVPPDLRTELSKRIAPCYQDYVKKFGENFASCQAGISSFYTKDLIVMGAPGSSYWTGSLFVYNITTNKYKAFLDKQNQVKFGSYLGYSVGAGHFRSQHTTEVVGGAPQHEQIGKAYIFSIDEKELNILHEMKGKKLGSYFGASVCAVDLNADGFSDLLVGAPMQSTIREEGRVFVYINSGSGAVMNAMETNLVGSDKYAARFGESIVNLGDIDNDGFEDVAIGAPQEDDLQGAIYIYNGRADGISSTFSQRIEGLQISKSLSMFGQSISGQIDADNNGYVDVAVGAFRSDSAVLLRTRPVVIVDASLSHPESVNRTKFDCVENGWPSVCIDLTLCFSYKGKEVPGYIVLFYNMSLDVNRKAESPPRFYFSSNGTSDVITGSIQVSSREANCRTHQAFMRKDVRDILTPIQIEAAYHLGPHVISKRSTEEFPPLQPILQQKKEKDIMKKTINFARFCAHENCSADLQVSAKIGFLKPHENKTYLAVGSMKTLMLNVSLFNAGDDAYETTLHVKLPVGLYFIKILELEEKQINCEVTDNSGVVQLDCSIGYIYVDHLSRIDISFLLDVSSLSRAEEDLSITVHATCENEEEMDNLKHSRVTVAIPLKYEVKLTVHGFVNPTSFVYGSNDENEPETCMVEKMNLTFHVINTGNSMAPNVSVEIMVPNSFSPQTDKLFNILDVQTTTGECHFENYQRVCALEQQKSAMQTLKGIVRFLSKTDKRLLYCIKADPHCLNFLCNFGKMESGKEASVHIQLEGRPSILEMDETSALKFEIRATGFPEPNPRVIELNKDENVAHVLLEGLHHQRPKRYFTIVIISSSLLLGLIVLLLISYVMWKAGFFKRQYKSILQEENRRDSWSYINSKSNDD

As a reminder, the IC50 is the concentration at which inhibition is half-maximal. A lower IC50 goes with inhibition by little substance. With `N[C@@H](Cc1ccc(O)cc1)C(=O)N[C@H]1CSSC[C@@H](C(=O)O)NC(=O)C2CCC(CC2)CNC1=O`, the IC50 at Integrin alpha-4/beta-1 [1] was determined as 19 µM; at Integrin alpha-4/beta-1 [2] it was 0.1 µM.
Turning to `N[C@H](Cc1ccc(O)cc1)C(=O)N[C@H]1CSSC[C@@H](C(=O)O)NC(=O)[C@@H]2CCCN2C(=O)[C@H](CO)NC1=O`, the IC50 is 126 µM on Integrin alpha-4/beta-1 [1] and 0.89 µM at Integrin alpha-4/beta-1 [2].
The like results for `CC1CNC(=O)[C@@H](NC(=O)[C@@H](N)Cc2ccc(O)cc2)CSSC[C@@H](C(=O)O)NC1=O` (some centres undefined) were, in that order, 2.7 µM and 0.047 µM.
The like results for `O=C(N[C@H]1CSSC[C@@H](C(=O)O)NC(=O)[C@@H]2CCCN2C(=O)[C@H](CO)NC1=O)c1cccc2ccccc12` (1Naphthoyl-CSPC-OH; disulfide 1-4) were, in that order, 6.3 µM and 0.097 µM.
For `O=C(N[C@H]1CSSC[C@@H](C(=O)O)NC(=O)[C@@H]2CCCN2C(=O)[C@H](CO)NC1=O)c1ccc2ccccc2c1` (2Naphthoyl-CSPC-OH; disulfide 1-4), the half-maximal inhibitory concentration (IC50) at Integrin alpha-4/beta-1 [1] came out at 3.6 µM; at Integrin alpha-4/beta-1 [2] it was 0.054 µM.
The like results for `CC(=O)N[C@@H](CCCN=C(N)N)C(=O)N[C@H]1CSSC[C@@H](C(=O)O)NC(=O)[C@@H]2CCCN2C(=O)[C@H](CC(=O)O)NC1=O` (Ac-RCDPC-OH; disulfide 2-5) were, in that order, 40 µM and 1.3 µM.
The compound `CC(=O)N[C@@H](Cc1ccc(O)cc1)C(=O)N[C@H]1CSSC[C@@H](C(=O)O)NC(=O)CNC(=O)[C@H](C)NC1=O` (Ac-YCAGC-OH; disulfide 2-5) registered an IC50 on Integrin alpha-4/beta-1 [2] of 22 µM.
Compound `CC(=O)N[C@@H](Cc1ccc(O)cc1)C(=O)N[C@H]1CSSC[C@@H](C(N)=O)NC(=O)[C@@H]2CCCN2C(=O)[C@H](C)NC1=O` (Ac-YCAPC-NH2; disulfide 2-5) showed a 50% inhibitory concentration (IC50) at Integrin alpha-4/beta-1 [2] of 0.32 µM.
Regarding `CC(=O)N[C@@H](Cc1ccc(O)cc1)C(=O)N[C@H]1CSSC[C@@H](C(=O)O)NC(=O)[C@@H]2CCCN2C(=O)[C@H](C)NC1=O` (Ac-YCAPC-OH; disulfide 2-5), the IC50 at Integrin alpha-4/beta-1 [1] amounted to 0.31 µM; at Integrin alpha-4/beta-1 [2], 0.004 µM.
On the same counts, the results for `CC(=O)N[C@@H](Cc1ccc(O)cc1)C(=O)N[C@H]1CSSC[C@@H](C(=O)O)NC(=O)[C@H](c2ccccc2)NC(=O)[C@H](C)NC1=O` (Ac-YCA[Phg]C-OH; disulfide 2-5) are 33 µM and 0.076 µM.
The like results for `CC(=O)N[C@@H](Cc1ccc(O)cc1)C(=O)N[C@H]1CSSC[C@@H](C(=O)O)NC(=O)[C@@H]2CCCCN2C(=O)[C@H](C)NC1=O` (Ac-YCA[Pip]C-OH; disulfide 2-5) were, in that order, 0.02 µM and 0.001 µM.
The compound `CC(=O)N[C@@H](Cc1ccc(O)cc1)C(=O)N[C@H]1CSSC[C@@H](C(=O)O)NC(=O)CN(C)C(=O)[C@H](C)NC1=O` (Ac-YCA[Sar]C-OH; disulfide 2-5) yielded an IC50 at Integrin alpha-4/beta-1 [2] of 0.71 µM.
Regarding `CC(=O)N[C@@H](Cc1ccc(O)cc1)C(=O)N[C@H]1CSSC[C@@H](C(=O)O)NC(=O)[C@@H]2CCCN2C(=O)[C@H](CO)NC1=O` (Ac-YCSPC-OH; disulfide 2-5), the figures for the half-maximal inhibitory concentration (IC50) on Integrin alpha-4/beta-1 [1] and at Integrin alpha-4/beta-1 [2] were 0.12 µM and 0.002 µM, respectively.
The like results for `CC(=O)N[C@@H](Cc1ccc(O)cc1)C(=O)N[C@H]1CSSC[C@@H](C(=O)O)NC(=O)[C@@H]2CCCN2C(=O)[C@H]([C@@H](C)O)NC1=O` (Ac-YCTPC-OH; disulfide 2-5) were, in that order, 0.32 µM and 0.005 µM.
In the case of `CC(=O)N[C@@H](Cc1ccc(O)cc1)C(=O)N[C@H]1CSSC[C@@H](C(=O)O)NC(=O)[C@@H]2CCCN2C(=O)[C@H](Cc2ccc(O)cc2)NC1=O` (Ac-YCYPC-OH; disulfide 2-5), the concentration for half-maximal inhibition (IC50) was 0.23 µM on Integrin alpha-4/beta-1 [1] and 0.003 µM at Integrin alpha-4/beta-1 [2].
The like results for `CC(=O)N1CC[C@@H](c2ccc(O)cc2)[C@@H]1C(=O)N[C@H]1CSSC[C@@H](C(=O)O)NC(=O)[C@@H]2CCCN2C(=O)[C@H](CO)NC1=O` (Ac-[X3]CSPC-OH; disulfide 2-5) were, in that order, 0.008 µM and 0.0005 µM.
On Integrin alpha-4/beta-1 [2], `CC(=O)N1CC[C@H](c2ccc(O)cc2)[C@@H]1C(=O)N[C@H]1CSSC[C@@H](C(=O)O)NC(=O)[C@@H]2CCCN2C(=O)[C@H](CO)NC1=O` (Ac-[X7]CSPC-OH; disulfide 2-5) yielded an IC50 of 0.004 µM.
Consider `O=C(N[C@H]1CSSC[C@@H](C(=O)O)NC(=O)[C@@H]2CCCN2C(=O)[C@H](CO)NC1=O)c1ccccc1` (Bz-CSPC-OH; disulfide 1-4), for which the IC50 on Integrin alpha-4/beta-1 [1] worked out at 1.9 µM; on Integrin alpha-4/beta-1 [2], 0.134 µM.
On the same counts, the results for `N=C(N)NCCC[C@H](NC(=O)OCC1c2ccccc2-c2ccccc21)C(=O)N[C@H]1CSSC[C@@H](C(=O)O)NC(=O)[C@@H]2CCCN2C(=O)[C@H](CC(=O)O)NC1=O` (Fmoc-RCDPC-OH; disulfide 2-5) are 15 µM and 0.13 µM.
Take `N[C@@H](Cc1ccccc1)C(=O)N[C@H]1CSSC[C@@H](C(=O)O)NC(=O)[C@@H]2CCCN2C(=O)[C@H](CO)NC1=O` (H-FCSPC-OH; disulfide 2-5): the IC50 was 15 µM at Integrin alpha-4/beta-1 [1] and 1.5 µM on Integrin alpha-4/beta-1 [2].
For `NC(N)=NCCC[C@H](NC(=O)[C@@H](N)Cc1ccccc1)C(=O)N[C@H]1CSSC[C@@H](C(=O)O)NC(=O)[C@@H]2CCCN2C(=O)[C@H](CC(=O)O)NC1=O` (H-FRCDPC-OH; disulfide 3-6), the 50% inhibitory concentration (IC50) was 100 µM on Integrin alpha-4/beta-1 [1] and 2.1 µM at Integrin alpha-4/beta-1 [2].
The like results for `NCCCC[C@H](N)C(=O)N[C@H]1CSSC[C@@H](C(=O)O)NC(=O)[C@@H]2CCCN2C(=O)[C@H](CC(=O)O)NC1=O` (H-KCDPC-OH; disulfide 2-5) were, in that order, 1000 µM and 250 µM.
On the same counts, the results for `CC(C)C[C@H](N)C(=O)N[C@@H](CCCNC(=N)N)C(=O)N[C@H]1CSSC[C@@H](C(=O)O)NC(=O)[C@@H]2CCCN2C(=O)[C@H](CC(=O)O)NC1=O` (H-LRCDPC-OH; disulfide 3-6) are 250 µM and 21 µM.
With `NC(=O)[C@@H]1CSSC[C@H](NC(=O)[C@@H](N)CCCN=C(N)N)C(=O)N[C@@H](CC(=O)O)C(=O)N2CCC[C@H]2C(=O)N1` (H-RCDPC-NH2; disulfide 2-5), the IC50 at Integrin alpha-4/beta-1 [2] is 50 µM.
The same measure, in the same setting: the figure for `C[C@@H]1NC(=O)[C@@H](NC(=O)[C@@H](N)Cc2ccc(O)cc2)CSSC[C@@H](C(=O)O)NC(=O)C2(Cc3ccccc3C2)NC1=O` (H-YCA[Aic]C-OH; disulfide 2-5) is 36 µM; for `C[C@@H]1NC(=O)[C@@H](NC(=O)[C@@H](N)Cc2ccc(O)cc2)CSSC[C@@H](C(=O)O)NC(=O)[C@H](C2CCCCC2)NC1=O` (H-YCA[Chg]C-OH; disulfide 2-5) it is 0.23 µM; for `C[C@@H]1NC(=O)[C@@H](NC(=O)[C@@H](N)Cc2ccc(O)cc2)CSSC[C@@H](C(=O)O)NC(=O)[C@@H]2C[C@@H](O)CN2C1=O` (H-YCA[Hyp]C-OH; disulfide 2-5) it is 0.005 µM.
On the same count and under the same terms, the figure for `NC(=O)[C@@H]1CSSC[C@H](NC(=O)[C@@H](N)Cc2ccc(O)cc2)C(=O)Nc2cccc(c2)C(=O)N1` (H-YC[3Abz]C-NH2; disulfide 2-4) is 12 µM; for `N[C@@H](Cc1ccc(O)cc1)C(=O)N[C@H]1CSSC[C@@H](C(=O)O)NC(=O)[C@H](CC2CCCCC2)NC1=O` (H-YC[Cha]C-OH; disulfide 2-4) it is 18 µM.
Still for that read-out and setting: the figure for `N[C@@H](Cc1ccc(O)cc1)C(=O)N[C@H]1CSSC[C@@H](C(=O)O)NC(=O)[C@H](C2CCCCC2)NC1=O` (H-YC[Chg]C-OH; disulfide 2-4) is 115 µM.

Values taken from ChEMBL document CHEMBL1130186, “Potent alpha 4 beta 1 peptide antagonists as potential anti-inflammatory agents” (J Med Chem, 1997).
